In US20190038667A1, “APPLICATION OF FULLERENE/METAL-FULLERENE FOR PREPARING PHARMACEUTICAL PRODUCT” (BEIJING FU NA KANG BIOTECHNOLOGY CO., LTD., priority 2016, published 2019):
Where two headings read alike, the source gives them in different places.

Tests used:
[1] = test system: ICR mice; test: Influence of GFNC on therapeutic effects of CTX on tumors and toxic experiment
Experimental: Blank control group: The injected drugs in the experimental groups were replaced with equal volumes of normal saline.
Metallofullerene derivative (GFNC) experimental group: Mice were injected intravenously with a GFNC solution at a dosage of 0.04 mmol of Gd^3+/kg of body weight of mice.
CTX+GFNC experimental group: Mice were injected intraperitoneally with a CTX solution at a dosage of 60 mg/kg of body weight of mice, and GFNC solution was injected intravenously at a dosage of 0.04 mmol of Gd^3+/kg of body weight of mice.
Injection of drugs was initiated on the 7th day after tumor inoculation, which was marked as the first day of the experiment. Intraperitoneal injection of CTX or intravenous injection of GFNC was conducted once a day for 5 consecutive days, and weights of mice and tumor diameters were measured every two days; thereafter, on the 17th day, mice were fetched and their eye balls were removed, and blood was taken respectively from their orbits; then, the blood was placed in a 5 ml centrifuge tube where it was centrifuged for 15 minutes at a rotational speed of 3,500 rpm; after that, a resultant serum was transferred into a 200 μL centrifuge tube, and blood biochemical indexes (e.g., ALT, ALP, AST, BUN, LDH and UA) of the mice were detected in a blood biochemical instrument; after mice were sacrificed by cervical dislocation, their main tissues and organs (hearts, livers, spleens, lungs and kidneys) were taken and weighed, and were then soaked in a 4% formalin solution; thereafter, histopathological section was conducted, and then, H&E staining was conducted. The blank control group, the cyclophosphamide (CTX) experimental group and the metallofullerene experimental group (GFNC) were processed in the same way for comparison.

[2] = test system: ICR mice; conditions: second course
Experimental: (§1) Animal models: ICR mice aged 4-5 weeks were selected and assigned randomly into 5 groups with 6 mice per group.
100 μL of normal saline was administered intragastrically so as to eliminate the difference influenced by intragastric stimulation on mice.
(§2) Blank control group: The CTX solution injected in the experimental group was replaced with equal volumes of normal saline, and normal saline of the volume equal to 100 μL was administered intragastrically or intraperitoneally to replace Olive-C60 or olive oil.
(§3) The second course started 20 days after the day when the first course was initiated and mice were basically recovered. In other words, the 21st day of the first course was marked as the first day of the second course. Thereafter, intraperitoneal injection of CTX was conducted once a day for 5 consecutive days; and Olive-C60 or olive was administered intragastrically or intraperitoneally. 5 days later, no drug was given; and only observation or sampling was conducted.
Effects of Olive-C60 on myelosuppression in the second course on an intravital level: blood (13 μl) was taken from orbits of mice on the 4th day, the 7th day, the 10th day and the 17th day of the second course respectively, and was placed in a 3 ml centrifuge tube, and the blood routine examination was conducted using a blood cell automatic analyzer, wherein the main indexes related to myelosuppression are white blood cell counts (WBC), platelet counts (PLT), red blood cell counts (RBC) and hemoglobin determination (HGB). Meanwhile, changes in the weight of mice were monitored.

[3] = test system: ICR mice; conditions: first course
Experimental: as §1, §2
After ICR mice aged 4-5 weeks were bred in a laboratory, CTX solutions were injected on the seventh day when their conditions were stable, which was marked as the first day of the experiment. Intraperitoneal injection of CTX was conducted once a day for 5 consecutive days; meanwhile, Olive-C60 or Olive or the normal saline was administered intragastrically or intraperitoneally. 5 days later, no injection was made, and only observation or sampling was conducted.
Effects of Olive-C60 on myelosuppression in the first course on an intravital level: blood (13 μl) was taken from orbits of mice on the 4th day, the 7th day, the 10th day and the 17th day respectively, and was placed in a 3 ml centrifuge tube, and the blood routine examination was conducted using a blood cell automatic analyzer, wherein the main indexes related to myelosuppression are white blood cell counts (WBC), platelet counts (PLT), red blood cell counts (RBC) and hemoglobin determination (HGB). Meanwhile, changes in the weight of mice were monitored.

[4] = test system: ICR mice; test: Effects of Olive-C60 on relevant enzyme activities in the second course (serum); type: in vivo; conditions: 18th day, Olive-C60 intragastrically with CTX, or CTX alone, versus blank control group
Experimental: as §1, §3
Effects of Olive-C60 on relevant enzyme activities in the second course on an intravital level: On the 18th day of the second course of the experiment, whole blood was taken from orbits, serums were obtained by centrifugation, and different relevant enzyme activities were tested.

[5] = test system: ICR mice; test: Effects of Olive-C60 on blood biochemical indexes in the second course (serum); type: in vivo; conditions: 18th day, versus blank control group
Experimental: as §1, §3
Effects of Olive-C60 on blood biochemical indexes in the second course on an intravital level: On the 18th day of the second course of the experiment, whole blood was taken from orbits, serums were obtained by centrifugation, and blood biochemical indexes were tested.

[6] = test system: ICR mice; test: Protection on myelosuppression caused by CTX in H22 tumor mice (blood routine examination); type: in vivo
Experimental: Blank control group: The drugs injected either intragastrically or intraperitoneally in the experimental groups were replaced with equal volumes of normal saline.
GFNC experimental group: Mice were injected with a GFNC aqueous solution (1 mM) via caudal veins at a dosage of 0.004 mmol of GFNC/kg of body weight of mice.
CTX+GFNC experimental group: Mice were injected intraperitoneally with a CTX solution at a dosage of 60 mg/kg of body weight of mice, and GFNC solution was injected intravenously at a dosage of 0.004 mmol of GFNC/kg of body weight of mice.
Injection of drugs was initiated on the 7th day after tumor inoculation, which was marked as the first day of the experiment. Intraperitoneal injection of CTX or intravenous injection of GFNC was conducted once a day for 5 consecutive days; thereafter, blood (20 μl) was taken respectively from orbits of mice on the 4th day, the 7th day, the 10th day, the 14th day and the 17th day, and was placed in a 3 ml centrifuge tube, and the blood routine examination was conducted using a blood cell automatic analyzer, wherein the main indexes related to myelosuppression are white blood cell counts (WBC), platelet counts (PLT), hemoglobin determination (HGB) and monocyte proportion (MO %).
Animal model: ICR mice aged 4-5 weeks were selected and assigned randomly into 4 groups with 6 mice per group. […]

[7] = 17th day, CTX alone or CTX+GFNC
[8] = CTX 60 mg/kg i.p. x5 days alone

O=P1(N(CCCl)CCCl)NCCCO1 (stereo not shown) [CTX, cyclophosphamide]
histopathological sections of main tissues and organs (H&E staining) [1, 7]: damaged to a certain extent
pathological sections of tumor sites: cells of tumor tissues [1, 7]: die in great quantity
weight of mice ([1]; CTX 60 mg/kg i.p. x5 days alone or with GFNC 0.04 mmol of Gd3+/kg intravenously): drops obviously in the initial stage of drug injection
white blood cells on the 17th day ([2]; 17th day, CTX alone or with Olive-C60): still below their normal levels
white blood cells, red blood cells, platelets and hemoglobin compared with the blank control group [2, 8]: varying degrees of reduction
weight of mice ([2]; CTX alone or with Olive-C60): differs greatly from that of the mice in other groups
weight of mice ([2]; CTX alone or with Olive-C60, listed as cyclophosphamide): lower than that of the mice in any other groups
white blood cells, red blood cells, platelets and hemoglobin compared with the blank control group [3, 8]: varying degrees of reduction
weight of mice ([3]; CTX 60 mg/kg i.p. x5 days, alone or with Olive-C60 100 μL (1,500 ppm), after termination of CTX injection / later stage): lower than that of the mice in any other groups
level of MDA [4]: higher than that of mice in the blank control group
level of uric acid in the serum [5]: far lower than that in the serum of mice in the blank control group
monocytes ([6]; CTX 60 mg/kg i.p. x5 days alone or with 0.004 mmol/kg material intravenously x5 days): abnormal hyperplasia
white blood cells, platelets and hemoglobin ([6]; H22 tumor mice, CTX 60 mg/kg i.p. x5 days alone (versus blank control) or with 0.004 mmol/kg material intravenously x5 days (versus CTX group)): varying degrees of reduction
